Reference: US20250076280A1, “RAPID SCREENING FOR ELEVATED BILE ACIDS USING WHOLE BLOOD” (The University of Toledo, priority 2022, published 2025)

Assays:
[1] = Serum total bile acids in carbon tetrachloride-induced liver injury model; format: in vivo, mouse; settings: L-TBA mice, CCl4 i.p. three times a week for 2 weeks vs vehicle control
Experimental: (§1) C57BL/6J wild-type (WT) mice (Stock #000664) were procured from Jackson Laboratory and bred in-house in specific pathogen-free condition at the University of Toledo College of Medicine and Life Sciences. Mice were housed in cages (n=5 mice/cage) containing corn cob bedding (Bed-O-Cob; The Andersons Co.) and nestlets (Cat #CABFM00088; Ancare). The cages were housed at 23° C. under a 12/12-h light/dark phase cycle and fed a grain-based laboratory chow diet (LabDiet 5001) ad libitum. Mice were screened for serum total bile acids (TBA) prior to weaning. On day 22 for weaning, mice with low bile acids (L-TBA<40 µM) or high bile acids (H-TBA≥40 µM) were segregated into separate cages. To induce liver fibrosis in mice, carbon tetrachloride (Sigma-Aldrich, St. Louis, MO) ([…]) was administered intraperitoncally three times a week for 2 weeks with corn oil (Sigma-Aldrich) (50 μL) serving as vehicle control.
Total bile acids (TBA) in hemolysis-free sera were measured using a TBA assay kit (Enzyme Cycling Method; Diazyme Laboratories) according to the manufacturer's protocol.

[2] = system: RBCs; assay: Osmotic fragility test of RBCs from CCl4-treated mice; format: in vivo, mouse; settings: RBCs of L-TBA mice treated with CCl4 for 2 weeks vs vehicle; NaCl osmotic fragility
Experimental: as §1
Blood was collected in EDTA-containing tubes and then 10 μl aliquots were placed into a round bottom 96-well plate. […] The degree of red blood cell (RBC) hemolysis was evaluated spectrophotometrically at 540 nm on a Biotek Eon microplate spectrophotometer and normalized to the optical density value of 0.0% buffered salt solution. […] All groups were incubated at 37° C. for 1 hr prior and measured for osmotic fragility.

[3] = system: RBCs from L-TBA mice; assay: Osmotic fragility test after ex-vivo bile acid supplementation of RBCs; format: cell-based, mouse; settings: 100 μM bile acid in PBS, 1 hr at 37° C. before NaCl osmotic fragility test; vs PBS alone

Row | Compound | increase in serum TBA levels [1] | resistance of RBCs to osmotic lysis [2] | resistance to osmotic lysis (hemolysis) of L-TBA RBCs [3]
1 | ClC(Cl)(Cl)Cl [CCl4, carbon tetrachloride] | 16 fold | highly resistant to osmotic lysis | 
2 | C[C@H](CCC(=O)O)[C@H]1CC[C@H]2[C@@H]3[C@H](O)C[C@@H]4C[C@H](O)CC[C@]4(C)[C@H]3C[C@H](O)[C@]12C [cholic acid] |  |  | confer resistance
3 | C[C@H](CCC(=O)NCCS(=O)(=O)O)[C@H]1CC[C@H]2[C@@H]3[C@H](O)C[C@@H]4C[C@H](O)CC[C@]4(C)[C@H]3C[C@H](O)[C@]12C [taurocholate, taurocholic acid] |  |  | failed to induce any resistance
